Structures are written as SMILES. pIC50: −log10 of the molar value. Values after ≈ are worked out from the molar mass of the structure shown.

For assay [1], the target named is GSK3β (Homo sapiens, UniProt P49841). The class given is biochemical.
For assay [2], the target named is CDK2/cyclin A (Homo sapiens, UniProt P24941). Type of assay: biochemical.
Assay [3] relates to HEp-2 human laryngeal carcinoma cell line. Description: In vitro anti-proliferative assay, SRB method, HEp-2. The class given is cell-based. The following applies: for IC50: Homo sapiens, HEp-2, 48 h, read-out: IC50 against HEp-2; for HEp-2 (% inhibition): single concentration 100 μg mL^−1, 48 h, SRB, mean ± SD.
In assay [4] the test system is MCF-7 human breast carcinoma cell line. As to the kind of experiment: In vitro anti-proliferative assay, sulforhodamine-B. To be noted: single concentration 100 μg mL^−1, 48 h, SRB; mean ± SD. The class given is cell-based.
The subject of assay [5] is HEp-2 cells. As to the kind of experiment: Total nitrate/nitrite. Type of assay: cell-based, human. To be noted: HEp-2, treated with IC50 for 48 h.
Assay [6] relates to HEp-2 cells. As to the kind of experiment: Reduced glutathione. The class given is cell-based, human. The following applies: HEp-2, treated with IC50 for 48 h.
In assay [7] the test system is Vero normal African green monkey kidney cell line. Description: In vitro anti-proliferative assay, SRB method, normal Vero cells. Type of assay: cell-based. To be noted: single concentration 100 μg mL^−1, 48 h, mean ± SD.
For assay [8], the system named is HepG2 human hepatocellular carcinoma cell line. Description: In vitro anti-proliferative assay, SRB method, HepG2. Type of assay: cell-based.
Assay [9] deals with HepG2 cells. As to the kind of experiment: Apoptosis detection, annexin V-FITC/PI flow cytometry. The class given is cell-based, human. To be noted: HepG2, 9.5 μg mL^−1 (IC50), 24 h; DMSO control 1.18%.
Assay [10] has as its system HepG2 cells. Description: Total nitrate/nitrite. The following applies: HepG2, treated with IC50 for 48 h. The class given is cell-based, human.
For assay [11], the system named is HepG2 cells. Description: Cell cycle analysis by flow cytometry. Type of assay: cell-based, human. The following applies: HepG2, 9.5 μg mL^−1 (IC50), 24 h.
The subject of assay [12] is HepG2 cells. Description: Reduced glutathione. Type of assay: cell-based, human. To be noted: HepG2, treated with IC50 for 48 h.

GSK3β, sequence (P49841 whole entry): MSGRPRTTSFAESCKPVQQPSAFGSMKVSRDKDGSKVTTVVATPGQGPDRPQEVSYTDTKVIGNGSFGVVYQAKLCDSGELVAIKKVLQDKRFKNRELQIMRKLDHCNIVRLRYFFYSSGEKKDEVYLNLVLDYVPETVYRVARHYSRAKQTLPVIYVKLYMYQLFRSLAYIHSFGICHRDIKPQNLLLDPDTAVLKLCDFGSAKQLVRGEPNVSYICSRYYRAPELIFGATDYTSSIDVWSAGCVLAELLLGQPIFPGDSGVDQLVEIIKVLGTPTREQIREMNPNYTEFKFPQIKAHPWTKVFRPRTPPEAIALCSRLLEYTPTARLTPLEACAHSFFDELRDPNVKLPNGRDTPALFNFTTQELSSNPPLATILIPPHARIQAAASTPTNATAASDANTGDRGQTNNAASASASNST

For the compound `C/C(=N\NC(N)=S)c1ccccn1` [1a, (E)-2-(1-(pyridin-2-yl)ethylidene)hydrazine-1-carbothioamide], the pIC50 is 5.65 in assay [1] and 4.78 in assay [2]. The “GSK3β inhibitory activity compared with CHIR-99021” value in assay [1] (from IC50 values of Table 2) was “the reference drug showing nearly six times its inhibitory activity”. Also, in assay [2] (from IC50 values of Table 2), the “Roscovitine inhibitory activity against CDK2/cyclin A relative to the compound” value is given as “more than 3.5 times”. For the same compound, the half-inhibitory concentration (IC50) in assay [3] came to 7.5 µg/mL (≈ 38.6 µM). Also, the “HEp-2 (% inhibition)” value in assay [3] was 79.91 ± 0.7%.
For the compound `CCn1c(C)c(C(C)=O)s/c1=N/N=C(\C)c1ccccn1` [3b, 1-((E)-3-Ethyl-4-methyl-2-(((E)-1-(pyridin-2-yl)ethylidene)hydrazono)-2,3-dihydrothiazol-5-yl)ethan-1-one], in [4], the “MCF-7 (% inhibition)” value was found to be 73.52 ± 1.6%.
For `C/C(=N\N=C1/NC(=O)C(C)S1)c1ccccn1` (stereo not shown) [7a, (E)-5-Methyl-2-(((E)-1-(pyridin-2-yl)ethylidene)hydrazono)thiazolidin-4-one], in [4], the “MCF-7 (% inhibition)” value turned out to be 72.79 ± 1.3%.
For the compound `CC(=O)C1S/C(=N/N=C(\C)c2ccccn2)NC1=O` (stereo not shown) [8a, (E)-5-Acetyl-2-(((E)-1-(pyridin-2-yl)ethylidene)hydrazono)thiazolidin-4-one], the pIC50 in assay [1] is 6.31. Moreover, the “Increase of NOx level compared to untreated cells” value in assay [5] is given as 19%. In [6], the “Reduction in GSH content compared to untreated cells” value is on record as 14%. In addition, the “Vero (% inhibition)” value in assay [7] is given as 44.24 ± 2.8%. The compound also gave a pIC50 in assay [2] of 5.61. Besides, the “Stronger inhibitory activity against CDK2/cyclin A compared with roscovitine” value in assay [2] (from IC50 values of Table 2) is 1.3 fold. Also, in [3], the IC50 stood at 5.9 µg/mL (≈ 21.4 µM) and the “HEp-2 (% inhibition)” value was 78.67 ± 2.5%.
Turning to `CCN1C(=O)/C(=C\c2ccc(F)cc2)S/C1=N/N=C(\C)c1ccccn1` [9b, (E)-3-Ethyl-5-((E)-4-fluorobenzylidene)-2-(((E)-1-(pyridin-2-yl)ethylidene)hydrazono)thiazolidin-4-one], the “MCF-7 (% inhibition)” value in assay [4] is on record as 70.58 ± 1.8%.
On the same count and under the same terms, for `C/C(=N\N=C1/NC(=O)/C(=C\c2ccc(Cl)cc2)S1)c1ccccn1` [10a, (E)-5-((E)-4-Chlorobenzylidene)-2-(((E)-1-(pyridin-2-yl)ethylidene)hydrazono)thiazolidin-4-one] the value was 71.32 ± 3.4%.
As to `C/C(=N\N=c1/[nH]c(C)c(/N=N/c2ccc(C)cc2)s1)c1ccccn1` [13a, (E)-4-Methyl-2-(((E)-1-(pyridin-2-yl)ethylidene)hydrazono)-5-((E)-p-tolyldiazenyl)-2,3-dihydrothiazole], the IC50 in assay [8] (Homo sapiens, HepG2, 48 h, read-out: IC50 against HepG2) stood at 9.5 µg/mL (≈ 27.1 µM). The “HepG2 (% inhibition)” value in [8] (single concentration 100 μg mL^−1, 48 h, SRB, mean ± SD) was found to be 76.56 ± 1.3%. The Necrotic cells in assay [9] was 3.25%. The pIC50 in assay [1] is 6.47; in assay [2], 5.95. Besides, the “Increase of NOx level compared to untreated cells” value in assay [10] came out at 25%. In addition, the “Cells in G0–G1 phase (%DIP G1)” value in assay [11] was 59.62%. For the same compound, the “Vero (% inhibition)” value in assay [7] was found to be 41.81 ± 2.3%. The “Stronger inhibitory activity against CDK2/cyclin A compared with roscovitine” value in [2] (from IC50 values of Table 2) is listed as 2.2 fold. In [12], the “Reduction in GSH level compared to untreated cells” value worked out at 33%.

Source of the values: paper PMC11456921 (RSC Advances, 2024).
